Here are results for 30 molecules from patent publication US20050009894A1 (Aventis Pharma S.A., priority 2001, published 2005).

Where only a bound is given, the exact number is not on record here.

T1 sequence (P35968 786-1356 limits assumed): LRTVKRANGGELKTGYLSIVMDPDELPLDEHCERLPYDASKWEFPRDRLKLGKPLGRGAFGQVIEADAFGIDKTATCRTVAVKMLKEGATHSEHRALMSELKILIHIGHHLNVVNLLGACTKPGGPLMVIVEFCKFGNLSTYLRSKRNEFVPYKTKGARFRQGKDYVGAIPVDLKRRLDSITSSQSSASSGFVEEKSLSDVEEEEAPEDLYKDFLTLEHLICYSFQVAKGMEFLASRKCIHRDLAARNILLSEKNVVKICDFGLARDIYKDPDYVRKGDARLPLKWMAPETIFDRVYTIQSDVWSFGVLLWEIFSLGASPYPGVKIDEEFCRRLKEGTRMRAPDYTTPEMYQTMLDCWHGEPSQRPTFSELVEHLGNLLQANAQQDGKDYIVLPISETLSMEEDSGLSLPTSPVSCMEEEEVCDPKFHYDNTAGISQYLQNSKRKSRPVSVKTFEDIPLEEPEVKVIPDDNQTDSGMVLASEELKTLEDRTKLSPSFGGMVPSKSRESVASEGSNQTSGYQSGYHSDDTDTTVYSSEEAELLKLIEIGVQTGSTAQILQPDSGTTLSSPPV

One assay addresses T1, human KDR enzyme (Homo sapiens, UniProt P35968).
T1 construct: The cytoplasmic domain of human KDR enzyme is cloned in the form of a GST fusion; GST; made in house; host or cells: SF21 insect cells (baculovirus, pFastBac)
The assay is described as follows: Phosphorylation of the substrate PLCγ by the enzyme KDR in vitro (flashplate technique). In kind it is biochemical. The following applies: Activity, Table VII, degrees of activity by IC50 range. The method in brief: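 GST-fused human KDR cytoplasmic domain (Sf21 baculovirus, ~60% pure; 100 ng/well) phosphorylating 2 μg GST-PLCγ SH2-SH3 fragment in MOPS pH 7.2 with MgCl2/MnCl2, 1 h at 37° C. Started with γ33P-ATP plus cold ATP (2 μM in start solution); flashplate radioactivity. % inhibition vs no-compound control; IC50 from dose-response curves.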
In turn, `O=C(Cc1ccccc1)Oc1cc(-c2nc3ccccc3[nH]2)[nH]n1` [Example 219, Phenyl-acetic acid 5-(1H-benzoimidazol-2-yl)-1H-pyrazol-3-yl ester] yielded an IC50 greater than 3 µM.

Still in this assay, the particulars now being: Table VII, degrees of activity by IC50 range; read-out: Activity.
In the case of `O=S(=O)(Cc1ccccc1COc1cc(-c2nc3ccccc3[nH]2)[nH]n1)c1ccccc1` [Example 191, 2-[5-(2-Benzenesulfonylmethylbenzyloxy)-2H-pyrazol-3-yl]-1H-benzoimidazole], the IC50 is 0.3 to 3 µM. The same measure, in the same setting: the figure for `N#Cc1ccc(COc2cc(-c3nc4ccccc4[nH]3)[nH]n2)cc1` [Example 192, 4-[5-(1H-Benzoimidazol-2-yl)-1H-pyrazol-3-yloxymethyl]-benzonitrile] is greater than 3 µM; for `c1ccc(-c2ccc(COc3cc(-c4nc5ccccc5[nH]4)[nH]n3)cc2)cc1` [Example 193, 2-[5-(Biphenyl-4-ylmethoxy)-2H-pyrazol-3-yl]-1H-benzoimidazole] it is 0.3 to 3 µM; for `O=S(=O)(Oc1cc(-c2nc3ccccc3[nH]2)[nH]n1)c1cccc(Cl)c1Cl` [Example 194, 2,3-Dichloro-benzenesulfonic acid 5-(1H-benzoimidazol-2-yl)-1H-pyrazol-3-yl ester] it is greater than 3 µM. On the same count and under the same terms, as for `c1ccc2[nH]c(-c3cc(OCCN4CCOCC4)n[nH]3)nc2c1` [Example 195, 2-[5-(2-Morpholin-4-yl-ethoxy)-2H-pyrazol-3-yl]-1H-benzoimidazole], the figure is greater than 3 µM. The same measure, in the same setting: as for `c1ccc2[nH]c(-c3cc(OCCN4CCCCC4)n[nH]3)nc2c1` [Example 196, 2-[5-(2-Piperidin-1-yl-ethoxy)-2H-pyrazol-3-yl]-1H-benzoimidazole], the figure is greater than 3 µM; as for `COc1cccc(COc2cc(-c3nc4ccccc4[nH]3)[nH]n2)c1` [Example 197, 2-[5-(3-Methoxy-benzyloxy)-2H-pyrazol-3-yl]-1H-benzoimidazole], 0.3 to 3 µM. Take `Cc1ccc(C(=O)COc2cc(-c3nc4ccccc4[nH]3)[nH]n2)cc1` [Example 198, 2-[5-(1H-Benzoimidazol-2-yl)-1H-pyrazol-3-yloxy]-1-p-tolyl-ethanone]: the IC50 was greater than 3 µM. The same measure, in the same setting: as for `O=C(COc1cc(-c2nc3ccccc3[nH]2)[nH]n1)C(F)(F)C(F)(F)F` [Example 199, 1-[5-(1H-Benzoimidazol-2-yl)-1H-pyrazol-3-yloxy]-3,3,4,4,4-pentafluoro-butan-2-one], the figure is greater than 3 µM; as for `O=C(COc1cc(-c2nc3ccccc3[nH]2)[nH]n1)c1ccc(-c2ccccc2)cc1` [Example 200, 2-[5-(1H-Benzoimidazol-2-yl)-1H-pyrazol-3-yloxy]-1-biphenyl-4-yl-ethanone], greater than 3 µM. As for `CCC(=O)COc1cc(-c2nc3ccccc3[nH]2)[nH]n1` [Example 201, 1-[5-(1H-Benzoimidazol-2-yl)-1H-pyrazol-3-yloxy]-butan-2-one], the IC50 is greater than 3 µM. Still for that read-out and setting: the figure for `CN(C)c1ccc(C(=O)COc2cc(-c3nc4ccccc4[nH]3)[nH]n2)cc1` [Example 202, 2-[5-(1H-Benzoimidazol-2-yl)-1H-pyrazol-3-yloxy]-1-(4-dimethylamino-phenyl)-ethanone] is greater than 3 µM.

Turning to `O=C(COc1cc(-c2nc3ccccc3[nH]2)[nH]n1)c1cc(-c2ccccc2)no1` [Example 203, 2-[5-(1H-Benzoimidazol-2-yl)-1H-pyrazol-3-yloxy]-1-(3-phenyl-isoxazol-5-yl)-ethanone], the IC50 is greater than 3 µM. On the same count and under the same terms, the figure for `O=C(COc1cc(-c2nc3ccccc3[nH]2)[nH]n1)Nc1ccccc1` [Example 204, 2-[5-(1H-Benzoimidazol-2-yl)-1H-pyrazol-3-yloxy]-N-phenyl-acetamide] is greater than 3 µM.

With `CC(C)(C)C(=O)COc1cc(-c2nc3ccccc3[nH]2)[nH]n1` [Example 205, 1-[5-(1H-Benzoimidazol-2-yl)-1H-pyrazol-3-yloxy]-3,3-dimethyl-butan-2-one], the IC50 was greater than 3 µM.

Regarding `O=C(COc1cc(-c2nc3ccccc3[nH]2)[nH]n1)C12C[C@H]3C[C@@H](C1)C[C@@H](C2)C3` [Example 206, 1-Adamantan-1-vl-2-[5-(1H-benzoimidazol-2-yl)-1H-pyrazol-3-yloxy]-ethanone], the IC50 is greater than 3 µM.

Take `O=C(COc1cc(-c2nc3ccccc3[nH]2)[nH]n1)c1ccc2ccccc2c1` [Example 207, 2-[5-(1H-Benzoimidazol-2-yl)-1H-pyrazol-3-yloxy]-1-naphthalen-2-yl-ethanone]: the IC50 was greater than 3 µM. The same measure, in the same setting: the figure for `N#Cc1ccc(C(=O)COc2cc(-c3nc4ccccc4[nH]3)[nH]n2)cc1` [Example 208, 4-{2-[5-(1H-Benzoimi-dazol-2-Yl)-1H-pyrazol-3-yloxy)acetyl}-benzonitrile] is greater than 3 µM; for `O=C1CCc2cc(C(=O)COc3cc(-c4nc5ccccc5[nH]4)[nH]n3)ccc2N1` [Example 209, 6-{2-[5-(1H-Benzoimi-dazol-2-yl)-1H-pyrazol-3-yloxy]-acetyl}-3,4-dihydro-1H-quinolin-2-one] it is greater than 3 µM; for `O=C(COc1cc(-c2nc3ccccc3[nH]2)[nH]n1)c1ccc(OC(F)(F)F)cc1` [Example 210, 2-[5-(1H-Benzoimidazol-2-yl)-1H-pyrazol-3-yloxy]-1-(4-trifluoromethoxy-phenyl)-ethanone] it is greater than 3 µM.

Take `NS(=O)(=O)c1cc(C(=O)COc2cc(-c3nc4ccccc4[nH]3)[nH]n2)ccc1Cl` [Example 211, 5-{2-[5-(1H-Benzoimida-zol-2-yl)-1H-pyrazol-3-yloxy]-acetyl}-2-chloro-benzenesulfonamide]: the IC50 was greater than 3 µM. Same read-out and setting: the figure for `COc1ccc(C(=O)COc2cc(-c3nc4ccccc4[nH]3)[nH]n2)cc1` [Example 212, 2-[5-(1H-Benzoimidazol-2-yl)-1H-pyrazol-3-yloxy]-1-(4-methoxy-phenyl)-ethanone] is greater than 3 µM. The same measure, in the same setting: as for `O=C(COc1cc(-c2nc3ccccc3[nH]2)[nH]n1)C1CC1` [Example 213, 2-[5-(1H-Benzoimidazol-2-yl)-1H-pyrazol-3-yloxy]-1-cyclopropyl-ethanone], the figure is greater than 3 µM; as for `O=C(Oc1cc(-c2nc3ccccc3[nH]2)[nH]n1)c1ccncc1` [Example 214, Isonicotinic acid 5-(1H-benzoimidazol-2-yl)-1H-pyrazol-3-yl ester], 0.3 to 3 µM. For the molecule `CC(C)(C)C(=O)Oc1cc(-c2nc3ccccc3[nH]2)[nH]n1` [Example 215, 2,2-Dimethyl-propionic acid 5-(1H-benzoimidazole-2-yl)-1H-pyrazol-3-yl ester], the IC50 was greater than 3 µM. Same read-out and setting: as for `O=C(COCc1ccccc1)Oc1cc(-c2nc3ccccc3[nH]2)[nH]n1` [Example 216, Benzyloxy-acetic acid 5-(1H-benzoimidazol-2-yl)-1H-pyrazol-3-yl ester], the figure is greater than 3 µM; as for `O=C(Oc1cc(-c2nc3ccccc3[nH]2)[nH]n1)c1ccccc1` [Example 217, Benzoic acid 5-(1H-benzoimidazol-2-yl)-1H-pyrazol-3-yl ester], 0.3 to 3 µM; as for `COc1ccc(C(=O)Oc2cc(-c3nc4ccccc4[nH]3)[nH]n2)cc1` [Example 218, 4-Methoxy-benzoic acid 5-(1H-benzoimidazol-2-yl)-1H-pyrazol-3-yl ester], greater than 3 µM.

For the molecule `O=C(Oc1cc(-c2nc3ccccc3[nH]2)[nH]n1)c1c(F)c(F)c(F)c(F)c1F` [Example 220, 2,3,4,5,6-Pentafluoro-benzoic acid 5-(1H-benzoimidazol-2-yl)-1H-pyrazol-3-yl ester], the IC50 was greater than 3 µM.
